Experimental data: the supplement of paper PMC10307832

Key:
Assay in all cases: relative viability (nuclei count vs DMSO), 5 days (fraction); higher = more cells survive
[1] = compound: COC1=CC(c2cc3ccccc3[nH]2)=N/C1=C\c1[nH]c(C)cc1C [Obatoclax] + Nc1nc2[nH]cc(CCc3ccc(C(=O)N[C@@H](CCC(=O)O)C(=O)O)cc3)c2c(=O)[nH]1 [Pemetrexed] (partner 0.2 µM)
Procedure, shortened: (§1)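 One day after seeding in 1536-well plates, lung cancer cell lines were dosed by pin tool. Dosing was either single-drug or a fixed anchor-drug dose plus five library-drug doses (not always all listed) in √10 steps. After 5 days, nuclei were stained in one fix-and-stain step and counted on 4× images, and relative viability is the nuclei count of treated wells over that of vehicle wells, given as the median of duplicate plates.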

[2] = compound: CC(C)C[C@H](NC(=O)[C@H](Cc1ccccc1)NC(=O)c1cnccn1)B(O)O [Bortezomib] + CS(=O)(=O)N1CCN(Cc2cc3nc(-c4cccc5[nH]ncc45)nc(N4CCOCC4)c3s2)CC1 [Pictilisib] (partner 1 µM)
Procedure, shortened: as §1

[3] = compound: COC1=CC(c2cc3ccccc3[nH]2)=N/C1=C\c1[nH]c(C)cc1C [Obatoclax] + CS(=O)(=O)N1CCN(Cc2cc3nc(-c4cccc5[nH]ncc45)nc(N4CCOCC4)c3s2)CC1 [Pictilisib] (partner 1 µM)
Procedure, shortened: as §1

[4] = compound: CC1=CC(=NN1)NC2=CC(=NC(=N2)/C=C/C3=CC=CC=C3)N4CCN(CC4)C + Nc1ncn([C@H]2C[C@H](O)[C@@H](CO)O2)c(=O)n1 [Decitabine] (partner 2 µM)
Procedure, shortened: as §1

| Cell Line | relative viability ([1]; first compound 0.01 µM) | relative viability ([1]; first compound 0.03162 µM) | relative viability ([1]; first compound 0.1 µM) | relative viability ([1]; first compound 0.3162 µM) | relative viability ([1]; first compound 1 µM) | relative viability ([2]; first compound 0.0002 µM) | relative viability ([2]; first compound 0.002 µM) | relative viability ([2]; first compound 0.006325 µM) | relative viability ([2]; first compound 0.02 µM) | relative viability ([3]; first compound 0.01 µM) | relative viability ([3]; first compound 0.03162 µM) | relative viability ([3]; first compound 0.1 µM) | relative viability ([3]; first compound 0.3162 µM) | relative viability ([3]; first compound 1 µM) | relative viability ([4]; first compound 0.08 µM) | relative viability ([4]; first compound 0.253 µM) | relative viability ([4]; first compound 0.8 µM) | relative viability ([4]; first compound 2.53 µM) | relative viability ([4]; first compound 8 µM) | relative viability ([2]; first compound 0.000632 µM) |
| --- | --- | --- | --- | --- | --- | --- | --- | --- | --- | --- | --- | --- | --- | --- | --- | --- | --- | --- | --- | --- |
| NCI-H322M | 0.683 | 0.609 | 0.632 | 0.655 | 0.625 | 0.49 | 0.523 | 0.459 | 0.554 | 0.545 | 0.484 | 0.665 | 0.467 | 0.5 | 0.82 | 0.719 | 0.675 | 0.587 | 0.298 | – |
| NCI-H358 | 0.159 | 0.185 | 0.166 | 0.192 | 0.14 | 0.331 | 0.357 | 0.207 | 0.16 | 0.322 | 0.297 | 0.261 | 0.288 | 0.23 | 0.227 | 0.188 | 0.184 | 0.0835 | 0.0684 | 0.305 |
| NCI-H441 | 0.231 | 0.217 | 0.27 | 0.244 | 0.269 | 0.483 | 0.35 | 0.0918 | 0.102 | 0.442 | 0.451 | 0.412 | 0.338 | 0.348 | 0.233 | 0.222 | 0.223 | 0.172 | 0.12 | 0.315 |
| NCI-H460 | 0.0642 | 0.0576 | 0.0607 | 0.0693 | 0.0648 | 0.334 | 0.435 | 0.36 | 0.346 | 0.401 | 0.294 | 0.136 | 0.344 | 0.329 | 0.531 | 0.522 | 0.466 | 0.0534 | 0.0287 | 0.376 |
| NCI-H520 | 0.657 | 0.714 | 0.656 | 0.643 | 0.249 | 0.269 | 0.229 | 0.184 | 0.184 | 0.3 | 0.336 | 0.318 | 0.268 | 0.245 | 0.382 | 0.542 | 0.501 | 0.191 | 0.14 | 0.283 |
| NCI-H596 | 0.516 | 0.504 | 0.459 | 0.467 | 0.429 | 0.513 | 0.327 | 0.15 | 0.128 | 0.416 | 0.357 | 0.365 | 0.359 | 0.296 | 1.17 | 1.01 | 0.889 | 0.659 | 0.364 | 0.369 |
| NCI-H647 | 0.207 | 0.164 | 0.19 | 0.144 | 0.116 | 0.331 | 0.364 | 0.0521 | 0.0347 | 0.469 | 0.393 | 0.118 | 0.33 | 0.153 | 0.32 | 0.429 | 0.36 | 0.121 | 0.122 | 0.287 |
